Laboratory results taken from patent publication US5231091A, “Bis-arylphosphate ester antagonists of platelet activating factor” (priority 1992, dated 1993).
Where a name gives a salt, the structure may show the parent alone.

Columns and labels:
PAF receptor [1] = target: T1, PAF receptor (Oryctolagus cuniculus, UniProt G1TEI7); assay: Inhibition of PAF-induced aggregation in washed rabbit platelets; type: cell-based; conditions: PAF challenge 5E-9M, number of experiments in parentheses
T1 construct: endogenous in cells; host or cells: rabbit platelets (male New Zealand White)
Description: (§1) Test compounds were evaluated as PAF receptor antagonists in vitro by measuring inhibition of PAF (platelet activating factor) induced platelet aggregation. Platelet aggregation was measured by a modification of the method described in A. Wissner, et. al., J. Med. Chem., 27, 1174, 1984.
(§2) L-PAF was obtained from Calbiochem. A stock solution of 1-2 E-3M was prepared in 10% ethanol in water or 100% methanol and serial working dilutions were made using phosphate buffered saline (PBS). 1-2 E-3M stock solutions of test compounds were prepared in 100% methanol and serially diluted in PBS. All solutions were made up in plastic tubes, stored on ice and protected from heat and light. Solutions were prepared fresh or frozen at -20° C. and used within 48 hours.
More specifically, […] for 1-2 minutes at 37° C. in the aggregometer to achieve a stable baseline, then 50 μl of PBS or test compound, was added and incubated for 5 minutes before addition of the challenge concentration of PAF (final concentration of 5E-8M or 1E-7M, as determined from the dose response curve for PAF for that experiment). Aggregation was monitored for 5 minutes. Samples containing test compound or diluent were run simultaneously for comparison. Test compounds were initially evaluated at a screening concentration of 1E-5M. […]

PAF receptor [2] = target: T1, PAF receptor; assay: Inhibition of PAF-induced aggregation in rabbit platelet rich plasma; type: cell-based, rabbit (male New Zealand White); conditions: rabbit platelet rich plasma; PAF challenge 5E-8M; number of experiments in parentheses; read-out: IC50 inhibition of PAF-induced aggregation
Description: as §1
Approximately 120-240 ml of blood were collected by cardiac puncture from unanesthetized male New Zealand White rabbits (Whaley's Summit View Farms, Belvedere, N.J.) with the use of 3.2% sodium citrate anticoagulant (1 part of citrate/10 parts of blood). All syringes and pipets were plastic. The blood was gently mixed and immediately centrifuged at 800 rpm for 10-15 minutes at room temperature to recover the platelet rich plasma (PRP). Platelet poor plasma (PPP) was prepared by centrifuging PRP at 2800 rpm for 10 minutes at room temperature.
Dilutions (1:3000) of PRP in Isoton® diluent were made and platelet counts were determined on a Coulter Thrombocounter which was standardized with platelet reference standards (Interscience Platelet Control, Portland, Oreg.). PRP platelet counts were adjusted to approximately 400,000-500,000 platelets/μl by the addition of PPP.
as §2
(§3) Incubation mixtures consisted of 400 μl PRP, 50 μl of PBS diluent or test compound and 50 μl of PAF agonist. More specifically, 400 μl of PRP was stabilized in a cuvette for 1-2 minutes at 37° C. in the aggregometer to achieve a stable baseline, then 50 μl of PBS or test compound, was added and incubated for 5 minutes before addition of the challenge concentration of PAF (final concentration of 5E-8M or 1E-7M, as determined from the dose response curve for PAF for that experiment). Aggregation was monitored for 5 minutes. Samples containing test compound or diluent were run simultaneously for comparison. Test compounds were initially evaluated at a screening concentration of 1E-5M.
(§4) The recording equipment consisted of a dual channel Chronolog aggregometer connected to a dual channel 10 MV full scale deflection Omniscribe chart recorder (Houston Instruments). […] The bead suspension was used to set the 0% light transmission mark and clear water was used to set the 100% light transmission mark. These limits defined a full scale deflection. The aggregation traces were analyzed by a digitizing method (C. Kohler and B. Zoltan, J. Pharm. Methods, 12, 113, 1984) with x, y coordinate data stored in a computer file. A suitable program computed parameters of interest such as the magnitude of aggregation.

[3] = tested on: endotoxin induced mortality; assay: Endotoxin induced shock and mortality in mice; type: in vivo, mouse (male Balb/c)
Description: The test compounds (PAF antagonists) were also efficacious when administered iv prior to a lethal iv injection of endotoxin (Table IX).

PAF receptor [4] = target: T2, PAF receptor (Homo sapiens, UniProt P25105); assay: Inhibition of PAF-induced aggregation in human platelet rich plasma; type: cell-based; conditions: PAF challenge 1E-6M, number of experiments in parentheses
T2 construct: Blood from healthy volunteers was collected; endogenous in cells; host or cells: human platelets (healthy volunteers)
Description: as §1, §2, §3, §4
In some experiments, human PRP was used instead of rabbit PRP. Blood from healthy volunteers was collected in Vacutainers® containing the Na citrate diluent and processed in a manner similar to rabbit blood to obtain the PRP. For these experiments, the challenge concentration of PAF was 1E-6M.

LPS induced hypotension = assay: Endotoxin (LPS) induced hypotension in rats; type: in vivo, rat (male Wistar); conditions: anesthetized rats; 10 ug/kg intraarterially 5 minutes after LPS 15 mg/kg I.V.
Description: Bacterial cell wall lipopolysaccharide from E. coli strain 0111:B4 (Sigma #L-2630) was dissolved in saline at a concentration of 3.75 mg/ml and administered to rats at 15 mg/kg I.V. Test compounds were dissolved in saline at 1 mg/ml, diluted to 10 ug/ml, and injected intraarterially at 1 ml/kg (10 ug/kg). Male wistar strain rats were obtained from Charles River Labs and maintained according to ALAC standards. They were anesthetized with 30 mg/kg pentobarbital ip with supplementation as needed. The throat was opened, the left carotid artery was cannulated with PE-10 tubing and the trachea cannulated with 0.100 O.D. tubing. Ventilation was maintained by a Harvard Apparatus small animal pump at a rate sufficient to nearly abolish spontaneous respiration.

T1 sequence (G1TEI7 1-342): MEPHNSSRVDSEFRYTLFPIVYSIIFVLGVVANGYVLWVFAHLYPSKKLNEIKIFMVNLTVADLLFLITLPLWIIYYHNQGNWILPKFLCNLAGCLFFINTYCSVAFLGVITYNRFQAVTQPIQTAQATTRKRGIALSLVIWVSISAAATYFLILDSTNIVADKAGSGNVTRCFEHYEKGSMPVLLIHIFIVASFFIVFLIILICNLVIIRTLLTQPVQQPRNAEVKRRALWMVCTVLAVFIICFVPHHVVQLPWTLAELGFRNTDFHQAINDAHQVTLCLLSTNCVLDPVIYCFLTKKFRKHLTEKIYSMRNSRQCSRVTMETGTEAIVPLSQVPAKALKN
T2 sequence (P25105 whole entry): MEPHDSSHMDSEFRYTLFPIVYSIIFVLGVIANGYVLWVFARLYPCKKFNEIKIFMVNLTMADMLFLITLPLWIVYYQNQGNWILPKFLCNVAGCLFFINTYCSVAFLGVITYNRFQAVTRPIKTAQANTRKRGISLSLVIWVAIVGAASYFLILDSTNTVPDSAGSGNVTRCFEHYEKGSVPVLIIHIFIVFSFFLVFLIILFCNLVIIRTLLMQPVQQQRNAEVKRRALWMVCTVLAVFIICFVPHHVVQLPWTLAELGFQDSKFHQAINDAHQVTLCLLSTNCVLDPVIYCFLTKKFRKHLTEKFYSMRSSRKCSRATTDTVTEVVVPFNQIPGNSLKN

`CCCCCCCCCCCCCCOc1cccc(OP(=O)([O-])Oc2cccc(C[n+]3csc(C)c3)c2)c1OC` [3-[[3-[[Hydroxy[2-methoxy-3-(tetradecyloxy)phenoxy]-phosphinyl]oxy]phenyl]methyl]-5-methyl-thiazolium, hydroxide, inner salt] was tested, and the IC50 (PAF receptor [1]) was 5.49 nM, the IC50 (PAF receptor [2]) was 2510 nM and the “24 hour survival, treated” value ([3]; 40 mg/kg IP 2 hours prior to IP endotoxin) was 13/50. For the same compound, the “Survival after 24 hrs., treated” value ([3]; Table IX, 20 mg/kg iv prior to iv endotoxin, footnote prints IP, control 3/40) was 14/40, the IC50 (PAF receptor [4]) was 31000 nM and the “% reversal of LPS induced hypotension (fall in mean arterial pressure)” value (LPS induced hypotension) was 84%.
